# Measurements from the NIST ThermoML archive (doi:10.1016/j.fluid.2015.04.017).
# ± gives the expanded uncertainty stated by the source.
# Tests used:
# [1] = xn = mol fraction of the nth substance listed; settings: 101 kPa, Liquid, x2 = 0; for viscosity: Concentric cylinders viscometry; for mass density: Vibrating tube method
# [2] = refractive index (Na D-line) (dimensionless); xn = mol fraction of the nth substance listed; settings: 101 kPa, Liquid, Standard Abbe refractometry, x2 = 0
# [3] = refractive index (Na D-line) (dimensionless); settings: 298.15 K; 101.33 kPa; Liquid; Standard Abbe refractometry
# [4] = 298.15 K, 101.33 kPa, Liquid; for viscosity: Concentric cylinders viscometry; for mass density: Vibrating tube method
Structure (SMILES),viscosity ([1]; 288.15 K) [mPa·s],mass density ([1]; 288.15 K) [kg/m3],viscosity ([1]; 293.15 K) [mPa·s],mass density ([1]; 293.15 K) [kg/m3],viscosity ([1]; 298.15 K) [mPa·s],mass density ([1]; 298.15 K) [kg/m3],viscosity ([1]; 303.15 K) [mPa·s],mass density ([1]; 303.15 K) [kg/m3],viscosity ([1]; 308.15 K) [mPa·s],mass density ([1]; 308.15 K) [kg/m3],viscosity ([1]; 313.15 K) [mPa·s],mass density ([1]; 313.15 K) [kg/m3],viscosity ([1]; 318.15 K) [mPa·s],mass density ([1]; 318.15 K) [kg/m3],viscosity ([1]; 323.15 K) [mPa·s],mass density ([1]; 323.15 K) [kg/m3],refractive index ([2]; 288.15 K),refractive index [3],viscosity [4] [mPa·s],mass density [4] [kg/m3],further results
CCC(C)=O [butanone] + CCOC(=O)C(C)O,0.4217 ± 0.0059,811.324 ± 0.14,0.4054 ± 0.0058,806.111 ± 0.14,0.3888 ± 0.0057,800.872 ± 0.14,0.3712 ± 0.0055,795.603 ± 0.14,0.3542 ± 0.0054,790.3 ± 0.14,0.3368 ± 0.0053,784.965 ± 0.15,0.3194 ± 0.0052,779.589 ± 0.15,0.3036 ± 0.0051,774.175 ± 0.15,1.3817 ± 0.00033,,,,refractive index ([2]; 293.15 K): 1.37918 ± 0.00033; refractive index ([2]; 298.15 K): 1.37662 ± 0.00033; refractive index ([2]; 303.15 K): 1.37402 ± 0.00033; refractive index ([2]; 308.15 K): 1.37138 ± 0.00033; refractive index ([2]; 313.15 K): 1.36871 ± 0.00033; refractive index ([2]; 318.15 K): 1.36615 ± 0.00033; refractive index ([2]; 323.15 K): 1.36338 ± 0.00033
CN1CCCC1=O [N-methylpyrrolidone],,,,,,,,,,,,,,,,,,1.4687 ± 0.00033,1.757 ± 0.017,1030.45 ± 0.099,
CCC(C)=O [butanone],,,,,,,,,,,,,,,,,,1.37662 ± 0.00033,0.3888 ± 0.0057,800.872 ± 0.14,
CN1CCCC1=O [N-methylpyrrolidone] + CCOC(=O)C(C)O,2.088 ± 0.02,1039.4 ± 0.1,1.91 ± 0.018,1034.92 ± 0.099,1.757 ± 0.017,1030.45 ± 0.096,1.623 ± 0.016,1025.99 ± 0.094,1.505 ± 0.015,1021.52 ± 0.092,1.401 ± 0.014,1017.07 ± 0.09,1.307 ± 0.013,1012.61 ± 0.088,1.231 ± 0.013,1008.16 ± 0.086,1.47305 ± 0.00033,,,,refractive index ([2]; 293.15 K): 1.47088 ± 0.00033; refractive index ([2]; 298.15 K): 1.4687 ± 0.00033; refractive index ([2]; 303.15 K): 1.46651 ± 0.00033; refractive index ([2]; 308.15 K): 1.46434 ± 0.00033; refractive index ([2]; 313.15 K): 1.46211 ± 0.00033; refractive index ([2]; 318.15 K): 1.45998 ± 0.00033; refractive index ([2]; 323.15 K): 1.45783 ± 0.00033
Cc1ccccc1 [toluene] + CCOC(=O)C(C)O,0.6251 ± 0.0075,871.501 ± 0.12,0.5961 ± 0.0072,866.859 ± 0.12,0.567 ± 0.007,862.206 ± 0.12,0.54 ± 0.0068,857.541 ± 0.12,0.5128 ± 0.0066,852.861 ± 0.13,0.4866 ± 0.0064,848.164 ± 0.13,0.462 ± 0.0062,843.444 ± 0.13,0.4435 ± 0.0061,838.707 ± 0.13,1.49883 ± 0.00033,,,,refractive index ([2]; 293.15 K): 1.49592 ± 0.00033; refractive index ([2]; 298.15 K): 1.49299 ± 0.00033; refractive index ([2]; 303.15 K): 1.49012 ± 0.00033; refractive index ([2]; 308.15 K): 1.48731 ± 0.00033; refractive index ([2]; 313.15 K): 1.48454 ± 0.00033; refractive index ([2]; 318.15 K): 1.48195 ± 0.00033; refractive index ([2]; 323.15 K): 1.47928 ± 0.00033
Cc1ccccc1 [toluene],,,,,,,,,,,,,,,,,,1.49299 ± 0.00033,0.567 ± 0.007,862.206 ± 0.12,
CCOC(=O)C(C)O (racemic) [DL-ethyl lactate],,,,,,,,,,,,,,,,,,1.41076 ± 0.00037,2.39 ± 0.025,1028.39 ± 0.25,
